Two compounds from PMC11748689, “Pharmacological and structural understanding of the Trypanosoma cruzi proteasome provides key insights for developing site-specific inhibitors” (The Journal of Biological Chemistry, 2024) can be followed below.

Holding throughout (assay type): biochemical
The target in assay [1] is recombinant WT T. cruzi proteasome (caspase-like activity, β1) (Trypanosoma cruzi, UniProt V5BHX1). Nature of the assay: Caspase-like activity assay (Proteasome-Glo), recombinant wild-type T. cruzi proteasome. On the procedure:
(§1) Chymotrypsin-, trypsin-, and caspase-like activity assays were performed using a commercially available Proteasome-Glo 3-substrate system assay kit (catalog number G8532) (Promega Corporation) according to the manufacturers protocols and as previously described ([24]).
(§2) Prior to running assays, Proteasome-Glo buffer was used to reconstitute the luciferin detection reagent (containing a recombinant thermostable luciferase enzyme). The resuspended luciferin detection reagent was then mixed with Proteasome-Glo chymotrypsin-, trypsin- or caspase-like substrates (either 40 μM suc-Leu-Leu-Val-Tyr-aminoluciferin, 30 μM Z-Leu-Arg-Arg-aminoluciferin (Z is benzyloxycarbonyl) or 40 μM Z-Nle-Pro-Nle-Asp-aminoluciferin respectively (these concentrations represent 2x final assay concentrations)). These substrate mixtures were allowed to incubate at room temperature for 60 min prior to use to allow the removal of any contaminating free aminoluciferin.
(§3) When proteasome inhibitors were to be screened in the chymotrypsin, trypsin, and caspase assays, test compounds were dispensed into assay wells using an ECHO 550 acoustic dispenser (Labcyte) (final DMSO concentration 1%). Compounds were tested in either a 10-point concentration series (30 μM top final assay concentration, 1 in 3 dilution series) or a 12-point concentration series (30 μM top final assay concentration, 1 in 2.5 dilution series).
(§4) Proteasome assays were then performed as described above using Promega Proteasome-Glo 3-substrate system assay kit. […] Diluted proteasome (4 μl) was added to assay plates using an electronic multichannel pipette (Integra Biosciences Ltd) and the proteasome incubated with compound for 60 min at room temperature.
(§5) Following the 60 min incubation of proteasome and compounds, assays were initiated with the addition of 4 μl of a substrate mix (containing substrate and the luciferin detection reagent) using an electronic multichannel pipette. Final assay concentrations of substrates used were either 20 μM Suc-Leu-Leu-Val-Tyr-aminoluciferin, 15 μM Z-Leu-Arg-Arg-aminoluciferin, or 20 μM Z-Nle-Pro-Nle-Asp-aminoluciferin for chymotrypsin-, trypsin-, or caspase-like activity, respectively. Following a further 60 min assay incubation, luminescence was read using an EnVision 2102 Multilabel Reader (PerkinElmer, Inc) with 0.2 s per well reading time.
(§6) All data processing was performed using Microsoft Excel for Microsoft 365 software.
(§7) Nonlinear dose-response curve fitting was carried out using the Microsoft Excel add-in, XLfit (IDBS). Percentage inhibition data were either fitted to a standard 4-parameter logistic fit model (XLfit model 205; Equation 2) or a biphasic model (either XLfit model 300; Equation 3 or a custom biphasic model; Equation 4 (used in cases where the top and/or bottom parameters deviated from 100%/0% inhibition)).(2) y=A+(B−A)/1+(C/x)^D Where A = % inhibition at bottom, B = % inhibition at top, C = IC50, D = slope, x = inhibitor concentration and y = % inhibition.(3) y=(A/(1+10^(C−log(x))∗B))+((100−A)/(1+10^(D−log(x))∗B)) With A = % inhibition at midplateau, B = slope, C = log(IC50^A), D = log(IC50^B)).
(§8) All IC50 data generated were converted to pIC50 using Equation 5.

Assay [2] addresses recombinant WT T. cruzi proteasome (trypsin-like activity, β2) (Trypanosoma cruzi, UniProt V5BCU3). Nature of the assay: biochemical. The note with it: for IC50: mean ± SD, N = 3, read-out: pIC50, Trypsin Assay, Wild-type (converted). The protocol:
as §1, §2, §3, §4, §5, §6, §7, §8

For assay [3], the target named is native T. cruzi proteasome (chymotrypsin-like activity, β5) (Trypanosoma cruzi, UniProt V5BU39+V5C017). As to the kind of experiment: Chymotrypsin-like activity assay (Proteasome-Glo), native T. cruzi proteasome. On the procedure: as §1, §2, §3, §4, §5, §6, §7, §8
Sequence of native T. cruzi proteasome (chymotrypsin-like activity, β5) (V5BU39 entry or part of it): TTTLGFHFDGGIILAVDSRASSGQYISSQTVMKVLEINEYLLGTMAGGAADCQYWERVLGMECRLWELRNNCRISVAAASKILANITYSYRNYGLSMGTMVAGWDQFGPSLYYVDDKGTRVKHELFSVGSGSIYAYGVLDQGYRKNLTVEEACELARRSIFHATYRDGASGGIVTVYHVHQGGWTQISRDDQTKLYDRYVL
Sequence of native T. cruzi proteasome (chymotrypsin-like activity, β5) (V5C017 entry or part of it): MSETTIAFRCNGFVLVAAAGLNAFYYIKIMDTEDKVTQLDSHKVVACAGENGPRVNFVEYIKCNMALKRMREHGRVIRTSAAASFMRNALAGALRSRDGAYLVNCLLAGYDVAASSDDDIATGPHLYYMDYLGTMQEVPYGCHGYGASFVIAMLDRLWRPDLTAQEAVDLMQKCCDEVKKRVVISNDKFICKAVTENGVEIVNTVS
Sequence of native T. cruzi proteasome (chymotrypsin-like activity, β5) (V5BGL9 entry or part of it, further chain): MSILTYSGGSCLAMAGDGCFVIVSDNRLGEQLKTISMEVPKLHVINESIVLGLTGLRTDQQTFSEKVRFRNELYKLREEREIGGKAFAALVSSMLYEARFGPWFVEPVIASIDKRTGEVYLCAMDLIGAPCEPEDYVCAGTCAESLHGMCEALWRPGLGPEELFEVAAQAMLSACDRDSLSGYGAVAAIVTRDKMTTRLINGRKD
In assay [4] the target is native T. cruzi proteasome (trypsin-like activity, β2) (Trypanosoma cruzi, UniProt V5BCU3). As to the kind of experiment: Trypsin-like activity assay (Proteasome-Glo), native T. cruzi proteasome. To be noted: mean ± SD, N = 3; read-out: pIC50, Trypsin Assay, Native (converted). On the procedure:
as §1, §2, §3, §4, §5, §6, §7, §8

Assay [5] concerns the target recombinant WT T. cruzi proteasome (chymotrypsin-like activity, β5) (Trypanosoma cruzi, UniProt V5BU39+V5C017). Nature of the assay: biochemical. To be noted: for maximum % inhibition plateau, Chymotrypsin Assay, Wild-type: mean ± SD, N = 3 (N = 2 for DDD02091966), (a) mid-point plateau from biphasic curve fits. The protocol: as §1, §2
Proteasome assays were carried out using 384-well, white, low-volume plates (catalog number 784904) (Greiner Bio-One) at room temperature (∼23 °C) in 8 μl reaction volumes. When activity checks were to be run in the presence or absence of a fixed concentration of proteasome inhibitor, 80 nL of the inhibitor (at a concentration 100x the required final assay concentration), or 80 nL dimethylsulfoxide (DMSO), were dispensed into assay plates using an Echo 550 acoustic dispenser (Labcyte).
A 1 in 2 dilution series of the various T. cruzi proteasome samples (native, recombinant WT, β4^R mutant, and Δβ1Δβ2 mutant) were produced in assay buffer (50 mM Tris–HCl, pH 7.5, 10 mM sucrose, 5 mM MgCl2, 1 mM DTT, 2 mM ATP, 150 mM NaCl, 1 mM EDTA, and 0.05 mg/ml bovine serum albumin). Subsequently, 4 μl of the various concentrations of diluted proteasome were added to assay plates using an electronic multichannel pipette (Integra Biosciences Ltd). When kinetic read activity checks were performed (Fig. 2), proteasome final assay concentrations used were 115 μg/ml, 115 μg/ml, and 230 μg/ml native proteasome (in the chymotrypsin, trypsin, and caspase assays, respectively), and 4.1 μg/ml, 3.4 μg/ml, or 1.4 μg/ml recombinant WT proteasome (in the chymotrypsin, trypsin, and caspase assays, respectively). When activity checks were to be run in the presence or absence of a proteasome inhibitor plates containing inhibitor or DMSO control were incubated with the relevant proteasome sample for 60 min at room temperature (this step was not included in activity check experiments where compounds were not used).
Following the 60 min incubation of proteasome and compound (if required), assays were initiated with the addition of 4 μl of substrate mix (containing substrate and the luciferin detection reagent) using an electronic multichannel pipette. Final assay concentrations of substrates used were either 20 μM Suc-Leu-Leu-Val-Tyr-aminoluciferin, 15 μM Z-Leu-Arg-Arg-aminoluciferin, or 20 μM Z-Nle-Pro-Nle-Asp-aminoluciferin for chymotrypsin-, trypsin- or caspase-like activity respectively.
Luminescence was read either kinetically or as an endpoint read using an EnVision 2102 Multilabel Reader (PerkinElmer, Inc) with 0.2 s per well reading time. When kinetic assays were run, luminescence was read every 5 min for 90 min. Endpoint assays were run for 60 min before luminescence was read. All data processing and linear fit analyses were performed using Microsoft Excel for Microsoft 365 software (Redmond, Washington; https://www.microsoft.com/).
as §3

Assay [6] addresses native T. cruzi proteasome (caspase-like activity, β1) (Trypanosoma cruzi, UniProt V5BHX1). Nature of the assay: Caspase-like activity assay (Proteasome-Glo), native T. cruzi proteasome. The note with it: mean ± SD, N = 3; read-out: pIC50, Caspase Assay, Native (converted). The protocol: as §1, §2, §3, §4, §5, §6, §7, §8
The mark [7] stands for this setting: native and recombinant T. cruzi proteasomes.

Sequence of recombinant WT T. cruzi proteasome (chymotrypsin-like activity, β5) (V5BGL9 entry or part of it): as the sequence (V5BGL9 entry or part of it, further chain) above
Sequence of recombinant WT T. cruzi proteasome (chymotrypsin-like activity, β5) (V5BU39 entry or part of it): as the sequence (V5BU39 entry or part of it) above
Sequence of recombinant WT T. cruzi proteasome (chymotrypsin-like activity, β5) (V5C017 entry or part of it): as the sequence (V5C017 entry or part of it) above

As to `O=C(Nc1ccc(F)c(-c2cn3nc(-c4ccccc4)cnc3n2)c1)N1CCCC1` [DDD01012248], the IC50 in assay [1] is more than 30.2 µM; in assay [2], more than 30.2 µM; in assay [3], 0.0309 µM; in assay [4] it was more than 30.2 µM; in assay [5] it was 0.0525 µM; in assay [6], more than 30.2 µM. Further, the “inhibition of chymotrypsin activity, recombinant WT proteasome, fixed concentration” value in assay [5] (1 μM compound, endpoint activity vs proteasome concentration (Fig. 7A)) is on record as “partial inhibition”. Besides, the “maximum % inhibition plateau, Chymotrypsin Assay, Wild-type” value in assay [5] was 67.7 ± 4.0%.
For the compound `O=C(Nc1ccc(F)c(C(=O)NC2CC2)c1)c1ccc(COc2ccccc2)o1` [DDD02091966, N-(3-(cyclopropylcarbamoyl)-4-fluorophenyl)-5-(phenoxymethyl)furan-2-carboxamide], the IC50 is more than 30.2 µM in assay [1]; more than 30.2 µM in assay [2]; 0.038 µM in assay [3]; more than 30.2 µM in assay [4]; 0.0347 µM in assay [5]; more than 30.2 µM in assay [6]. Further, the “inhibition of the caspase activity” value in assay [1] (setting [7]) is given as “no inhibition”. The “inhibition of the trypsin activity” value in assay [2] (setting [7]) is given as “no inhibition”. The “maximum % inhibition plateau, Chymotrypsin Assay, Wild-type” value in assay [5] is reported as 51.6 ± 1.8%.
